Source: patent publication US7999011B2, “Method for cardioprotection and neuroprotection by intravenous administration of halogenated volatile anesthetics” (Baxter International Inc., priority 2002, dated 2011)
Entries after “also recorded” stand apart in the source; their conditions may differ.

Legend:
[1] = tested on: myocardial ischemia-reperfusion injury; assay: Myocardial infarct size following ischemia and reperfusion (30 min LAD occlusion, 3 h reperfusion); type: in vivo, rabbit; conditions: for infarct size plotted as a function of area at risk, versus control regression line: FIGS. 4A, 4B, 5A, 5B; for cardioprotection (protection against myocardial ischemia-reperfusion injury): i.v. emulsion prior to coronary artery occlusion; for IF/AAR: infarct size as percentage of area at risk, i.v. emulsion 10 ml/h 30 min, stopped 30 min before occlusion; for IF WT: infarct weight
Description: These experiments were designed to characterize the effects of different HVAs (enflurane, isoflurane, sevoflurane, and desflurane) administered intravenously in an emulsion on myocardial infarct size following ischemia and reperfusion in rabbits.
(§1) Male New Zealand white rabbits weighing between 2.5 and 3.0 kg were anesthetized with intravenous sodium pentobarbital (30 mg/kg). Additional doses of pentobarbital were titrated as required to assure that pedal and palpebral reflexes were absent throughout the experiment. A tracheotomy was performed through a ventral midline incision, and the trachea was cannulated. The rabbits were ventilated with positive pressure using an air-oxygen mixture (FiO2=0.33). Arterial blood gas tensions and acid-base status were maintained within a normal physiological range (pH 7.35-7.45, PaCO2 25-40 mmHg, and PaO2 90-150 mmHg) by adjusting the respiratory rate or tidal volume. Body temperature was maintained with a heating blanket. Heparin-filled catheters were inserted into the right carotid artery and the left jugular vein for measurement of arterial blood pressure and fluid or drug administration, respectively. Maintenance fluids consisted of 0.9% saline (15 ml/kg/h) that were continued for the duration of the experiment.
(§2) A left thoracotomy was performed at the fourth intercostal space, and the heart was suspended in a pericardial cradle. A prominent branch of the left anterior descending coronary artery (LAD) was selected, and a silk ligature was placed around this artery approximately halfway between the base and apex for the production of coronary artery occlusion and reperfusion in myocardial infarct size experiments. Each rabbit was anticoagulated with 500 U of heparin immediately before LAD occlusion. Coronary artery occlusion was verified by the presence of epicardial cyanosis and regional dyskinesia in the ischemic zone, and reperfusion was confirmed by observing an epicardial hyperemic response. Hemodynamics were continuously recorded on a polygraph throughout experimentation. After the surgical preparation, 30 min of stabilization were allowed.
(§3) The experimental design for the experiments is illustrated in FIG. 1. Rabbits were randomly assigned to one of six experimental groups: a control group (0.9% saline infusion), a vehicle group (drug lipid vehicle), or one of four anesthetic groups (emulsified desflurane, isoflurane, enflurane, or sevoflurane). The vials of anesthetics were stored at 4° C. as prepared in Example 1. After opening, the vial was left in a water bath at 37° C. for 2 h. Anesthetics were directly poured into the syringe without using negative pressure suction.
(§4) Baseline measurements of systemic hemodynamics, arterial blood gas tensions, and blood concentrations of anesthetic agent were performed 30 min after instrumentation was completed. Rabbits received 0.9% saline, drug lipid vehicle (10 ml/h), or intravenous volatile anesthetic (10 ml/h) for 30 min. Infusions were discontinued 30 min prior to coronary occlusion (memory period). Blood concentrations of anesthetic agents were performed at baseline, at the end of anesthetic infusion, and at the end of the memory period just before coronary occlusion). HVA concentrations in blood were determined by gas chromatographic (GC) analysis. All rabbits underwent a 30 min LAD occlusion followed by 3 h reperfusion.
At the end of each experiment, the LAD was reoccluded and 3 ml of Patent blue dye was injected intravenously. The left ventricular area at risk for infarction was separated from surrounding normal areas (stained blue), and the two regions were incubated at 37° C. for 20 to 30 min in 1% 2,3,5-triphenyltetrazolium chloride in 0.1 M phosphate buffer adjusted to pH 7.4. After overnight storage in 10% formaldehyde, infarcted and noninfarcted myocardium within the area at risk were carefully separated and weighed. Infarct size was expressed as a percentage of the area at risk. […]

[2] = Systemic hemodynamics during infarct experiment; type: in vivo, rabbit
Description: as §1, with “Arterial blood gas tensions and acid-base status were maintained within a normal physiological range (pH 7.35-7.45, PaCO2 25-40 mmHg, and PaO2 90-150 mmHg) by adjusting the respiratory rate or tidal volume.” left out
as §2, §4
Statistical analysis of data within and between groups was performed with analysis of variance (ANOVA) for repeated measures followed by Student-Newman-Keuls test. Changes between groups were considered statistically significant when the p value was less than 0.05. All data are expressed as mean±SEM.

[3] = Warming of emulsion at 37° C. for 2 h before infusion; type: physicochemical; conditions: syringe and extension tubing
Description: as §3
All anesthetics were used under equivalent experimental conditions, as indicated previously (i.e., warmed for two hours at body temperature before infusion).
Despite efforts to remove the bubbles, it was impossible to eliminate all bubbles, and some were likely infused during the infusion period. Desflurane results should therefore be interpreted with the constraints of this experimental limitation.

[4] = i.v. emulsion 10 ml/h for 30 min, Baseline

SMILES | infarct size plotted as a function of area at risk, versus control regression line [1] | IF/AAR [1] [%] | IF WT [1] [g] | MAP ([2]; Baseline) | HR ([2]; Infusion) [bpm] | MAP ([2]; Infusion) | RPP ([2]; Infusion) [bpm × mmHg × 10^3] | HR ([2]; Ischemia 30 min) [bpm] | MAP ([2]; Ischemia 30 min) [mmHg] | RPP ([2]; Ischemia 30 min) [bpm × mmHg × 10^3] | HR ([2]; Memory) [bpm] | MAP ([2]; Memory) [mmHg] | RPP ([2]; Memory) [bpm × mmHg × 10^3] | HR ([2]; Reperfusion 1 h) [bpm] | MAP ([2]; Reperfusion 1 h) [mmHg] | RPP ([2]; Reperfusion 1 h) [bpm × mmHg × 10^3] | HR ([2]; Reperfusion 2 h) [bpm] | MAP ([2]; Reperfusion 2 h) [mmHg] | RPP ([2]; Reperfusion 2 h) [bpm × mmHg × 10^3] | HR ([2]; Reperfusion 3 h) [bpm] | also measured
FCOC(C(F)(F)F)C(F)(F)F [SEVO, sevoflurane] | infarcts were smaller than in the control group | 20.5 ± 2.3 | 0.19 ± 0.04 | increased | 235 ± 9 | increased | 23.7 ± 1.7 | 214 ± 8 | 64 ± 5 | 15.7 ± 1.6 | 227 ± 11 | 87 ± 4 | 22.1 ± 1.8 | 206 ± 9 | 65 ± 3 | 15.2 ± 1.3 | 193 ± 10 | 65 ± 3 | 14 ± 1.2 | 188 ± 9 | cardioprotection (protection against myocardial ischemia-reperfusion injury) [1]: provided protection against myocardial ischemia-reperfusion injury; also recorded: adequate protection against myocardial ischemia-reperfusion injury; also recorded: significant reduction in the myocardial infarct size; RPP ([2]; Baseline): 22.9 ± 1.3 bpm × mmHg × 10^3; MAP ([2]; Baseline, listed as SEV): 92 ± 4 mmHg; MAP ([2]; Infusion, listed as SEV): 91 ± 4 mmHg; MAP ([2]; Reperfusion 3 h): 65 ± 2 mmHg; RPP ([2]; Reperfusion 3 h): 13.8 ± 0.8 bpm × mmHg × 10^3; HR [2, 4]: 227 ± 7 bpm
FC(F)OC(F)C(F)(F)F (centres unmarked) [DES, desflurane] | infarct size comparable to controls | 38.5 ± 6.7 | 0.50 ± 0.15 | 71 ± 8 mmHg | 253 ± 9 | 67 ± 9 mmHg | 20.4 ± 2.8 | 228 ± 7 | 53 ± 8 | 14.5 ± 2 | 231 ± 9 | 58 ± 10 | 16.3 ± 3 | 201 ± 14 | 54 ± 7 | 12.4 ± 0.4 | 216 ± 6 | 58 ± 8 | 15 ± 2.1 | 219 ± 7 | cardioprotection (protection against myocardial ischemia-reperfusion injury) [1]: unable to confer cardioprotection; also recorded: did not confer cardioprotection; MAP ([2]; Memory, listed as desflurane): decrease in mean arterial pressure; RPP ([2]; Reperfusion 1 h, listed as desflurane): decreased; MAP ([2]; Reperfusion 3 h): 54 ± 5 mmHg; RPP ([2]; Reperfusion 3 h): 14.2 ± 1.4 bpm × mmHg × 10^3; HR [2, 4]: 261 ± 11 bpm; behaviour of emulsion on warming to body temperature [3]: bubbles accumulated in the syringe and extension tubing
FC(F)OC(Cl)C(F)(F)F (centres unmarked) [ISO, isoflurane] | infarcts were smaller than in the control group | 18.1 ± 2.6 | 0.18 ± 0.03 | 64 ± 5 mmHg | 227 ± 14 | 57 ± 6 mmHg | 16.2 ± 2.2 | 220 ± 11 | 54 ± 5 | 14.3 ± 1.6 | 229 ± 10 | 62 ± 6 | 16.7 ± 2 | 212 ± 4 | 52 ± 3 | 13.3 ± 0.8 | 201 ± 6 | 54 ± 3 | 13.2 ± 1 | 195 ± 7 | cardioprotection (protection against myocardial ischemia-reperfusion injury) [1]: provided protection against myocardial ischemia-reperfusion injury; also recorded: adequate protection against myocardial ischemia-reperfusion injury; also recorded: significant reduction in the myocardial infarct size; RPP ([2]; Baseline): 17.7 ± 2 bpm × mmHg × 10^3; MAP ([2]; Infusion, listed as isoflurane): decreased; RPP ([2]; Reperfusion 1 h, listed as isoflurane): decreased; MAP ([2]; Reperfusion 3 h): 58 ± 3 mmHg; RPP ([2]; Reperfusion 3 h): 13.5 ± 1 bpm × mmHg × 10^3; HR [2, 4]: 240 ± 9 bpm
FC(F)OC(F)(F)C(F)Cl (centres unmarked) [ENF, enflurane] | infarcts were smaller than in the control group | 20.0 ± 2.8 | 0.21 ± 0.02 | 78 ± 4 mmHg | 240 ± 11 | 68 ± 3 mmHg | 18.9 ± 1.5 | 213 ± 9 | 59 ± 6 | 14.5 ± 1.7 | 231 ± 11 | 70 ± 3 | 18.9 ± 1.4 | 216 ± 7 | 65 ± 6 | 15.8 ± 1.5 | 214 ± 10 | 68 ± 7 | 16.5 ± 1.6 | 210 ± 7 | cardioprotection (protection against myocardial ischemia-reperfusion injury) ([1]; listed as Enflurane): provided protection against myocardial ischemia-reperfusion injury; cardioprotection (protection against myocardial ischemia-reperfusion injury) ([1]; listed as enflurane): adequate protection against myocardial ischemia-reperfusion injury; also recorded: significant reduction in the myocardial infarct size; RPP ([2]; Baseline): 22 ± 1.9 bpm × mmHg × 10^3; MAP ([2]; Reperfusion 3 h): 75 ± 5 mmHg; RPP ([2]; Reperfusion 3 h): 17.6 ± 1.3 bpm × mmHg × 10^3; HR [2, 4]: 248 ± 10 bpm
